Numbers after ± are expanded uncertainties.
Test: mn = molality of the nth substance listed, in mol/kg
Conditions: 101 kPa, Liquid; for mass density: Pycnometric method; for viscosity: Capillary tube (Ostwald / Ubbelohde) method; for speed of sound: Linear variable-path acoustic interferometer

O=[N+]([O-])[O-].O=[N+]([O-])[O-].[Mg+2] [magnesium nitrate] + O
Conditions | mass density [kg/m3] | speed of sound [m/s] | viscosity [mPa·s]
314.7 K, m1 = 0.0528 | 996.94 ± 0.66 | – | –
315 K, m1 = 0.0145 | 992.8 ± 0.65 | – | –
315.05 K, m1 = 1.525 | 1135.2 ± 0.8 | – | –
315.1 K, m1 = 3.501 | 1288.9 ± 0.9 | – | –
315.15 K, m1 = 3.757 | 1305.4 ± 0.9 | – | –
315.25 K, m1 = 0.9898 | 1088.5 ± 0.8 | – | –
315.25 K, m1 = 1.262 | 1112.4 ± 0.8 | – | –
315.3 K, m1 = 3.17 | 1270.8 ± 0.8 | – | –
315.6 K, m1 = 4.728 | 1367.6 ± 1.1 | – | –
315.8 K, m1 = 5.134 | 1391.1 ± 1 | – | –
315.95 K, m1 = 0.3405 | 1025.4 ± 0.7 | – | –
316.1 K, m1 = 0.896 | 1079 ± 0.7 | – | –
316.1 K, m1 = 2.793 | 1238.2 ± 0.9 | – | –
316.15 K, m1 = 1.827 | 1162.1 ± 0.8 | – | –
316.25 K, m1 = 4.039 | 1322.3 ± 0.9 | – | –
316.35 K, m1 = 4.97 | 1380.1 ± 1 | – | –
316.45 K, m1 = 5.282 | 1399.6 ± 1 | – | –
316.75 K, m1 = 0.6173 | 1052.2 ± 0.8 | – | –
317.15 K, m1 = 0.0528 | 995.93 ± 0.66 | – | –
317.15 K, m1 = 3.501 | 1287.7 ± 1 | – | –
317.25 K, m1 = 1.525 | 1134 ± 0.8 | – | –
317.25 K, m1 = 3.096 | 1259.7 ± 1.2 | – | –
317.35 K, m1 = 2.493 | 1213.8 ± 1 | – | –
317.35 K, m1 = 3.757 | 1304.1 ± 0.9 | – | –
317.5 K, m1 = 0.9898 | 1087.3 ± 0.8 | – | –
317.5 K, m1 = 1.262 | 1111.2 ± 0.8 | – | –
317.55 K, m1 = 3.118 | 1260.5 ± 0.8 | – | –
317.55 K, m1 = 4.285 | 1337.9 ± 1 | – | –
317.75 K, m1 = 2.131 | 1186 ± 0.9 | – | –
317.85 K, m1 = 0.2491 | 1016.9 ± 0.7 | – | –
317.95 K, m1 = 4.883 | 1372.7 ± 1 | – | –
318.15 K, m1 = 0.0145 | – | 1540.2 ± 1.9 | 0.6082 ± 0.008
318.15 K, m1 = 0.0528 | – | 1541.4 ± 1.9 | 0.62 ± 0.0082
318.15 K, m1 = 0.2491 | – | 1554.4 ± 1.9 | 0.655 ± 0.0086
318.15 K, m1 = 0.3405 | – | 1552.3 ± 1.9 | –
318.15 K, m1 = 0.5931 | – | – | 0.7284 ± 0.0096
318.15 K, m1 = 0.6173 | – | 1572 ± 1.9 | –
318.15 K, m1 = 0.896 | – | 1590 ± 1.9 | –
318.15 K, m1 = 0.9898 | – | 1596.3 ± 1.9 | 0.8367 ± 0.011
318.15 K, m1 = 1.262 | – | 1612.6 ± 1.9 | 0.9225 ± 0.012
318.15 K, m1 = 1.525 | – | 1629.5 ± 1.9 | –
318.15 K, m1 = 1.827 | 1160.9 ± 0.8 | 1650.5 ± 1.9 | 1.117 ± 0.015
318.15 K, m1 = 2.131 | – | 1668.7 ± 2 | 1.245 ± 0.016
318.15 K, m1 = 2.493 | – | 1689.3 ± 2 | –
318.15 K, m1 = 2.584 | – | – | 1.473 ± 0.019
318.15 K, m1 = 2.793 | – | 1708.7 ± 2 | –
318.15 K, m1 = 3.096 | – | – | 1.772 ± 0.023
318.15 K, m1 = 3.118 | – | 1727.2 ± 2 | –
318.15 K, m1 = 3.17 | – | 1733.9 ± 2 | –
318.15 K, m1 = 3.329 | – | – | 1.935 ± 0.025
318.15 K, m1 = 3.501 | – | 1748.8 ± 2 | –
318.15 K, m1 = 3.704 | – | – | 2.216 ± 0.029
318.15 K, m1 = 3.757 | – | 1761.7 ± 2 | –
318.15 K, m1 = 4.039 | – | – | 2.545 ± 0.033
318.15 K, m1 = 4.051 | 1321.2 ± 0.9 | 1776 ± 2 | –
318.15 K, m1 = 4.285 | – | 1787.8 ± 2 | –
318.15 K, m1 = 4.403 | – | 1794.4 ± 2 | –
318.15 K, m1 = 4.728 | – | – | 3.456 ± 0.045
318.15 K, m1 = 4.883 | – | 1818.4 ± 2.1 | –
318.15 K, m1 = 4.907 | – | – | 3.76 ± 0.049
318.15 K, m1 = 5.134 | – | 1832.8 ± 2.1 | –
318.15 K, m1 = 5.282 | – | – | 4.426 ± 0.058
318.25 K, m1 = 3.704 | 1300.4 ± 0.9 | – | –
318.35 K, m1 = 2.584 | 1221.6 ± 0.8 | – | –
318.4 K, m1 = 0.896 | 1077.9 ± 0.7 | – | –
318.5 K, m1 = 4.97 | 1378.6 ± 1 | – | –
318.7 K, m1 = 1.694 | 1148.1 ± 0.9 | – | –
318.8 K, m1 = 4.403 | 1344 ± 0.9 | – | –
318.8 K, m1 = 5.282 | 1398.1 ± 1 | – | –
318.9 K, m1 = 0.5931 | 1048.4 ± 0.8 | – | –
319.05 K, m1 = 0.6173 | 1051.1 ± 0.7 | – | –
319.35 K, m1 = 1.525 | 1132.8 ± 0.8 | – | –
319.35 K, m1 = 3.757 | 1302.8 ± 1 | – | –
319.45 K, m1 = 3.118 | 1259.2 ± 0.8 | – | –
319.5 K, m1 = 3.17 | 1268.1 ± 0.9 | – | –
319.55 K, m1 = 0.0528 | 994.98 ± 0.7 | – | –
319.55 K, m1 = 1.262 | 1110.2 ± 0.8 | – | –
319.9 K, m1 = 2.131 | 1184.8 ± 0.8 | – | –
319.9 K, m1 = 4.728 | 1364.8 ± 1 | – | –
319.95 K, m1 = 0.0145 | 990.65 ± 0.67 | – | –
320.2 K, m1 = 5.134 | 1388.4 ± 1 | – | –
320.25 K, m1 = 2.793 | 1235.8 ± 0.9 | – | –
320.3 K, m1 = 1.827 | 1159.7 ± 0.8 | – | –
320.3 K, m1 = 4.039 | 1319.5 ± 0.9 | – | –
320.65 K, m1 = 0.2491 | 1014.7 ± 0.8 | – | –
320.85 K, m1 = 1.694 | 1146.9 ± 0.8 | – | –
320.9 K, m1 = 0.3405 | 1023.3 ± 0.8 | – | –
320.9 K, m1 = 5.282 | 1396.6 ± 1 | – | –
321.25 K, m1 = 0.5931 | 1047.4 ± 0.7 | – | –
321.35 K, m1 = 3.096 | 1257.2 ± 0.9 | – | –
321.6 K, m1 = 2.493 | 1211.3 ± 1 | – | –
321.75 K, m1 = 0.9898 | 1085.2 ± 0.7 | – | –
321.8 K, m1 = 4.285 | 1335.1 ± 0.9 | – | –
321.9 K, m1 = 4.728 | 1363.5 ± 1.3 | – | –
321.95 K, m1 = 0.0528 | 993.94 ± 0.7 | – | –
322.1 K, m1 = 0.0145 | 989.61 ± 0.7 | – | –
322.2 K, m1 = 4.883 | 1370 ± 1.2 | – | –
322.25 K, m1 = 2.793 | 1234.5 ± 0.9 | – | –
322.35 K, m1 = 2.584 | 1219.2 ± 0.9 | – | –
322.45 K, m1 = 3.704 | 1297.7 ± 0.9 | – | –
322.45 K, m1 = 4.039 | 1318.2 ± 2.3 | – | –
322.75 K, m1 = 0.2491 | 1013.6 ± 0.7 | – | –
322.75 K, m1 = 4.051 | 1318.5 ± 0.9 | – | –
322.8 K, m1 = 4.97 | 1375.7 ± 1 | – | –
323.05 K, m1 = 4.403 | 1341.3 ± 1.2 | – | –
323.15 K, m1 = 0.0145 | – | 1545.7 ± 1.9 | 0.5591 ± 0.0074
323.15 K, m1 = 0.0528 | – | 1548 ± 1.9 | 0.5708 ± 0.0076
323.15 K, m1 = 0.2491 | – | 1559.2 ± 1.9 | 0.6023 ± 0.0079
323.15 K, m1 = 0.3405 | – | 1563.6 ± 1.9 | –
323.15 K, m1 = 0.5931 | – | – | 0.6703 ± 0.0088
323.15 K, m1 = 0.6173 | – | 1576.6 ± 1.9 | –
323.15 K, m1 = 0.896 | – | 1593.9 ± 1.9 | –
323.15 K, m1 = 0.9898 | – | 1600.3 ± 1.9 | 0.7676 ± 0.01
323.15 K, m1 = 1.262 | – | 1614.9 ± 1.9 | 0.8482 ± 0.011
323.15 K, m1 = 1.525 | – | 1631.4 ± 1.9 | –
323.15 K, m1 = 1.827 | – | 1651.2 ± 1.9 | 1.028 ± 0.013
323.15 K, m1 = 2.131 | – | 1667.3 ± 2 | 1.145 ± 0.015
323.15 K, m1 = 2.493 | – | 1689.2 ± 2 | –
323.15 K, m1 = 2.584 | – | – | 1.353 ± 0.017
323.15 K, m1 = 2.793 | – | 1707.5 ± 2 | –
323.15 K, m1 = 3.096 | – | – | 1.629 ± 0.021
323.15 K, m1 = 3.118 | – | 1725.2 ± 2 | –
323.15 K, m1 = 3.17 | – | 1731.8 ± 2 | –
323.15 K, m1 = 3.329 | – | – | 1.772 ± 0.023
323.15 K, m1 = 3.501 | – | 1744 ± 2 | –
323.15 K, m1 = 3.704 | – | – | 2.028 ± 0.026
323.15 K, m1 = 3.757 | – | 1758.7 ± 2 | –
323.15 K, m1 = 4.039 | – | – | 2.319 ± 0.03
323.15 K, m1 = 4.051 | – | 1770.9 ± 2 | –
323.15 K, m1 = 4.285 | – | 1783.2 ± 2 | –
323.15 K, m1 = 4.403 | – | 1789.3 ± 2 | –
323.15 K, m1 = 4.728 | – | – | 3.107 ± 0.04
323.15 K, m1 = 4.883 | – | 1811.5 ± 2.1 | –
323.15 K, m1 = 4.907 | – | – | 3.418 ± 0.045
323.15 K, m1 = 5.134 | – | 1828.2 ± 2.1 | –
323.15 K, m1 = 5.282 | 1395.1 ± 1 | – | 3.975 ± 0.052
323.4 K, m1 = 0.6173 | 1049 ± 0.7 | – | –
323.5 K, m1 = 1.525 | 1130.6 ± 0.8 | – | –
323.5 K, m1 = 3.757 | 1300.1 ± 0.8 | – | –
323.55 K, m1 = 3.17 | 1265.4 ± 1.5 | – | –
323.6 K, m1 = 3.118 | 1256.7 ± 1.5 | – | –
323.75 K, m1 = 1.262 | 1107.8 ± 0.8 | – | –
323.95 K, m1 = 0.9898 | 1084 ± 0.8 | – | –
323.95 K, m1 = 2.131 | 1182.5 ± 0.9 | – | –
324.25 K, m1 = 1.827 | 1157.4 ± 0.9 | – | –
324.45 K, m1 = 5.134 | 1385.4 ± 1 | – | –
324.95 K, m1 = 1.694 | 1144.5 ± 0.8 | – | –
325.25 K, m1 = 5.282 | 1393.7 ± 1 | – | –

— the NIST ThermoML archive (doi:10.1021/je060107n)
